Source: PMC11489133, “Obicetrapib exhibits favorable physiochemical and pharmacokinetic properties compared to previous cholesteryl ester transfer protein inhibitors: An integrated summary of results from non‐human primate studies and clinical trials” (Pharmacology Research & Perspectives, 2024)
Several values for one entry are separate records, joined by “and”; a condition that tells them apart may be missing. Equal entries are not always repeated. Where two headings read alike, the source gives them in different places.

Assays:
Type in all cases: in vivo, humans
[1] = TA‐8995‐203 Phase II trial in Japanese participants, plasma concentrations of obicetrapib; settings: for Mean (SD) Plasma Level / concentration at 8 weeks: Week 8 (EOT), Japanese participants; for % Change in Plasma Level: Week 8 to Week 12, mean (SD); for concentration at 8 weeks / concentration at 12 weeks: both sexes, human, plasma, oral, read-out: Mean (SD) Plasma Level; for concentration at 12 weeks: Week 12, four weeks after the end of treatment
Experimental: (§1) The PK parameters and the effect of food on the bioavailability of obicetrapib in humans have been examined in both Phase I[9] (TA‐8995‐09 CSR, NewAmsterdam Pharma) and Phase II trials.[10], [11], [12], [13] The trials were performed in accordance with the Declaration of Helsinki, Good Clinical Practice Guidelines, and applicable regulatory requirements. Approval was obtained from the relevant ethical review boards for each site. All volunteers provided written informed consent prior to participation. PK parameters were determined using WinNonlin software, version 4.1 or higher (Pharsight/Certara Corporation, USA). Concentrations of obicetrapib were summarized for each treatment group using descriptive statistics.
This Phase II trial (NCT05421078) was designed to evaluate the efficacy, safety, and tolerability of obicetrapib as an adjunct to stable statin therapy in Japanese participants with LDL‐C >70 mg/dL, or non‐HDL‐C >100 mg/dL, and triglyceride levels <400 mg/dL.[13] Eligible participants were receiving either atorvastatin 10 or 20 mg or rosuvastatin 5 or 10 mg for at least 8 weeks prior to screening and continued statin therapy throughout the treatment period. One hundred two participants (mean age: 64.8 years; 71.6% male; mean BMI: 25.6 kg/m^2) were enrolled at nine clinical research sites in Japan and randomized to one of four treatment groups in a 1:1:1:1 ratio: 1) placebo; 2) 2.5 mg obicetrapib; 3) 5 mg obicetrapib; or 4) 10 mg obicetrapib.
The participants were instructed to take their assigned treatment orally once daily at approximately the same time each morning for the 8‐week treatment period. After randomization, participants returned to the clinical research site during Weeks 2, 4, and 8 (end of treatment) for PK assessments. Participants also completed a follow‐up visit 4 weeks after the end of treatment (Week 12) for a final PK assessment. All of the participants who were randomized completed the treatment and were included in the primary analysis. The PK population included all randomized participants in the mITT population assigned to the three obicetrapib dose groups who had sufficient blood samples collected for valid estimation of PK parameters; 76 (100%) participants in the PK population were included in the 4‐week post‐end of treatment PK analysis (TA‐8995‐203 CSR, NewAmsterdam Pharma).

[2] = absorption, metabolism and excretion study of a single 10 mg dose of 14C-obicetrapib (NCT02408055, TA‐8995‐07)
Experimental: Figure 2 illustrates the obicetrapib (TA‐8995) M1 detected above the LLOQ (>1% radioactivity) in human plasma expressed as the percent radioactivity profiled. A study (NCT02408055) was conducted in healthy male participants (n = 6) to assess the absorption, metabolism, and excretion of a single dose of 10 mg of ^14C‐obicetrapib (TA‐8995‐07 CSR, NewAmsterdam Pharma). One of the objectives of the study was to determine the chemical structure of ^14C‐obicetrapib M1 that represent ≥10% of total radioactivity in plasma. The participants received 10 mL ^14C‐obicetrapib oral suspension, containing 10 mg and 100 μCi of ^14C‐obicetrapib in the fasted state. Clinical samples for analysis were selected based upon the levels of radioactivity present as determined by liquid scintillation counting and were stored at below −50°C (nominally −80°C) when not in use. Plasma samples from the participants were sequentially extracted with acetonitrile at five time points. The resulting extracts were concentrated by evaporation and reconstituted in mobile phase HPLC prior to analysis by radio‐HPLC. All samples were analyzed by liquid scintillation counting to evaluate the recovery of radioactivity. The profiles of the radiolabeled components in each sample of plasma were determined by HPLC analysis with off‐line radio‐detection. Selected samples from each matrix were then further analyzed by high‐resolution mass spectrometry to investigate the identity of M1. In plasma, the predominant metabolite component was unchanged obicetrapib (~79% of total drug‐related exposure), and the most abundant plasma M1 were M1 and P9 of which each accounted for ~4% of total exposure (Figure 2). No significant differences in the metabolite profiles were observed across the samples obtained from the six participants (TA‐8995‐07 CSR, NewAmsterdam Pharma).

[3] = Phase I food effect trial on obicetrapib bioavailability (TA‐8995‐09); settings: for Cmax / AUC / t max: both sexes, human, plasma, oral, 10 mg; for t max: read-out: t max, median (minimum, maximum)
Experimental: as §1
This was an open‐label, randomized, two‐sequence, two‐period, two‐treatment crossover study conducted to evaluate the effect of food on the bioavailability of 10 mg obicetrapib. Thirty healthy adult males and females were randomized to treatment and data were available for 23 participants. In Treatment Period I, participants received a single 10 mg dose of obicetrapib after an overnight fast. In Treatment Period II, participants received a single 10 mg dose of obicetrapib at 30 min following the start of a standardized high‐fat, high‐calorie breakfast that was preceded by an overnight fast. Blood samples were collected at pre‐dose and at intervals over 336 h after dosing in each treatment period. The interval between doses was 49 days. The half‐life of obicetrapib was expected to be less than 6 days; therefore, it was anticipated that 49 days would be well beyond five half‐lives and an adequate washout period (TA‐8995‐09 CSR, NewAmsterdam Pharma).

[4] = Obicetrapib 2.5 mg + stable statin therapy
[5] = Obicetrapib 5 mg + stable statin therapy
[6] = Obicetrapib 10 mg + stable statin therapy

## CCOC(=O)N1c2ccc(C(F)(F)F)cc2C(N(Cc2cc(C(F)(F)F)cc(C(F)(F)F)c2)c2ncc(OCCCC(=O)O)cn2)CC1CC (stereo not shown) [Obicetrapib]
[1]; [4]
  Mean (SD) Plasma Level: 194.5 (42.7) ng/mL
  % Change in Plasma Level: −93.4 (2.6) %
  concentration at 12 weeks: 13.2 ng/mL
[1]; Obicetrapib 2.5 mg + stable statin therapy, listed as obicetrapib
  % Change in Plasma Level: −93.4%
[1]; [5]
  % Change in Plasma Level: −93.5 (3.4) %
  concentration at 8 weeks: 362 ng/mL
  concentration at 12 weeks: 24.6 ng/mL
[1]; Obicetrapib 5 mg + stable statin therapy, listed as obicetrapib
  % Change in Plasma Level: −93.5%
[1]; [6]
  Mean (SD) Plasma Level: 506.3 (237.5) ng/mL
  % Change in Plasma Level: −95.2 (2.3) %
  concentration at 12 weeks: 27.6 ng/mL
[1]; Obicetrapib 10 mg + stable statin therapy, listed as obicetrapib
  % Change in Plasma Level: −95.2%
[1]; 2.5 mg, Obicetrapib 2.5 mg + stable statin therapy
  concentration at 8 weeks: 194 ng/mL
[1]; 10 mg, Obicetrapib 10 mg + stable statin therapy
  concentration at 8 weeks: 506 ng/mL
[2]; n = 6 individuals, 24 h AUC pools, Figure 2
  percent radioactivity profiled in human plasma: up to 92.8%
[2]; single 10 mg 14C‐obicetrapib, fasted, healthy males n = 6
  share of total drug‐related exposure in plasma: ~ 79%
[3]; 10 mg dose, high‐fat meal
  increase of peak and overall systemic exposure (AUC, C max) under fed compared to fasted conditions: ~ 1.6 fold and 1.6 fold
[3]; 10 mg single dose
  least‐squares geometric mean of fed versus fasted ratio, AUC0‐t: 154.9%
  least‐squares geometric mean of fed versus fasted ratio, AUC0‐∞: 155.4%
  least‐squares geometric mean of fed versus fasted ratio, C max: 158.5%
[3]; 10 mg single dose, n = 23
  AUC(0‐t), LSGM Ratio (90% CI) (Fed vs. Fasted): 155 (130, 184)
  AUC(0‐∞), LSGM Ratio (90% CI) (Fed vs. Fasted): 155 (129, 187)
  C max, LSGM Ratio (90% CI) (Fed vs. Fasted): 159 (126, 199)
[3]; 10 mg single dose, Fasted, n = 23
  Cmax: 140 ng/mL
[3]; 10 mg single dose, Fasted, n = 23, read-out: AUC(0‐t), LS GM (converted)
  AUC: 12400 ng·h/mL
[3]; 10 mg single dose, Fasted, n = 23, read-out: AUC(0‐∞), LS GM (converted)
  AUC: 16600 ng·h/mL
[3]; 10 mg single dose, Fed (high‐fat, high‐calorie breakfast), n = 23
  Cmax: 222 ng/mL
[3]; 10 mg single dose, Fed, n = 23, read-out: AUC(0‐t), LS GM (converted)
  AUC: 19200 ng·h/mL
[3]; 10 mg single dose, Fed, n = 23, read-out: AUC(0‐∞), LS GM (converted)
  AUC: 25800 ng·h/mL
[3]; 10 mg single dose, fasted
  t max: 5 h
[3]; 10 mg single dose, fed
  t max: 5.5 h
